Source: PubChem BioAssay AID1918945 (Molecular Pharmacology Branch, DTP, NCI, 2023)
Several values for one entry are separate records, joined by “and”; a condition that tells them apart may be missing. Equal values may be shown once.

Tested on: 883617-216-R-J1-PDC complex spheroid viability
Assay: Anticancer human tumor 883617-216-R-J1-PDC patient-derived bladder carcinoma cell line growth inhibition
Conditions: for viability, T/C: stronger effect = lower value
Outline: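 Drug combinations with the LSD1 inhibitor iadademstat tested on tumor cells co-cultured as spheroids with endothelial cells and mesenchymal stem cells. Concentrations descended in half-log increments from clinical Cmax or 10 microM.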

[1] = curve of first compound, second compound 0.1 µM
[2] = curve of first compound, second compound 0.316 µM
[3] = curve of first compound, second compound 1 µM
[4] = curve of first compound, second compound 3.16 µM
[5] = curve of first compound, second compound 10 µM
[6] = second compound 0.1 µM, first compound 0.00949 µM
[7] = second compound 0.1 µM, first compound 0.03 µM
[8] = second compound 0.1 µM, first compound 0.0949 µM
[9] = second compound 0.1 µM, first compound 0.3 µM
[10] = second compound 0.316 µM, first compound 0.00949 µM
[11] = second compound 0.316 µM, first compound 0.03 µM
[12] = second compound 0.316 µM, first compound 0.0949 µM
[13] = second compound 0.316 µM, first compound 0.3 µM
[14] = second compound 1 µM, first compound 0.00949 µM
[15] = second compound 1 µM, first compound 0.03 µM
[16] = second compound 1 µM, first compound 0.0949 µM
[17] = second compound 1 µM, first compound 0.3 µM
[18] = second compound 3.16 µM, first compound 0.00949 µM
[19] = second compound 3.16 µM, first compound 0.03 µM
[20] = second compound 3.16 µM, first compound 0.0949 µM
[21] = second compound 3.16 µM, first compound 0.3 µM
[22] = second compound 10 µM, first compound 0.00949 µM
[23] = second compound 10 µM, first compound 0.03 µM
[24] = second compound 10 µM, first compound 0.0949 µM
[25] = second compound 10 µM, first compound 0.3 µM
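Note: exposure lasted seven days after three days of spheroid growth.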
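Throughout, for viability, T/C: 100% = DMSO vehicle control luminescence.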

Nc1ccn(C2OC(CO)C(O)C2(F)F)c(=O)n1 (configuration not stated) + NC1CCC(NC2CC2c2ccccc2)CC1
IC50 [1]: < 0.949 nM
IC50 [2]: < 0.949 nM
IC50 [3]: < 0.949 nM
IC50 [4]: < 0.949 nM
IC50 [5]: < 0.949 nM
viability, T/C (second compound 0.1 µM, first compound 0.000949 µM): 28.7%
viability, T/C (second compound 0.1 µM, first compound 0.003 µM): 20.4%
viability, T/C [6]: 24.2%
viability, T/C [7]: 26.4%
viability, T/C [8]: 25.9%
viability, T/C [9]: 18.2%
viability, T/C (second compound 0.316 µM, first compound 0.000949 µM): 24.9%
viability, T/C (second compound 0.316 µM, first compound 0.003 µM): 17.3%
viability, T/C [10]: 23.6%
viability, T/C [11]: 22.4%
viability, T/C [12]: 23.4%
viability, T/C [13]: 23.6%
viability, T/C (second compound 1 µM, first compound 0.000949 µM): 28.2%
viability, T/C (second compound 1 µM, first compound 0.003 µM): 19.7%
viability, T/C [14]: 24.1%
viability, T/C [15]: 22.6%
viability, T/C [16]: 22%
viability, T/C [17]: 21.7%
viability, T/C (second compound 3.16 µM, first compound 0.000949 µM): 24.7%
viability, T/C (second compound 3.16 µM, first compound 0.003 µM): 21.7%
viability, T/C [18]: 22.3%
viability, T/C [19]: 21.6%
viability, T/C [20]: 22.7%
viability, T/C [21]: 19.2%
viability, T/C (second compound 10 µM, first compound 0.000949 µM): 30.5%
viability, T/C (second compound 10 µM, first compound 0.003 µM): 20.6%
viability, T/C [22]: 26.9%
viability, T/C [23]: 23.6%
viability, T/C [24]: 23%
viability, T/C [25]: 19.2%

CCN(c1cc(-c2ccc(CN3CCOCC3)cc2)cc(C(=O)NCc2c(C)cc(C)[nH]c2=O)c1C)C1CCOCC1 + NC1CCC(NC2CC2c2ccccc2)CC1
IC50 [1]: > 3000 nM
IC50 [2]: > 3000 nM
IC50 [3]: > 3000 nM
IC50 [4]: > 3000 nM
IC50 [5]: > 3000 nM
viability, T/C [6]: 96.4%
viability, T/C [7]: 85%
viability, T/C [8]: 86.9%
viability, T/C [9]: 84.7%
viability, T/C (second compound 0.1 µM, first compound 0.949 µM): 90.7%
viability, T/C (second compound 0.1 µM, first compound 3 µM): 80.8%
viability, T/C [10]: 95.8%
viability, T/C [11]: 98.8%
viability, T/C [12]: 93.1%
viability, T/C [13]: 87.6%
viability, T/C (second compound 0.316 µM, first compound 0.949 µM): 89.1%
viability, T/C (second compound 0.316 µM, first compound 3 µM): 86%
viability, T/C [14]: 90.2%
viability, T/C [15]: 89.5%
viability, T/C [16]: 83.8%
viability, T/C [17]: 88.4%
viability, T/C (second compound 1 µM, first compound 0.949 µM): 90%
viability, T/C (second compound 1 µM, first compound 3 µM): 86.3%
viability, T/C [18]: 94.5%
viability, T/C [19]: 87.7%
viability, T/C [20]: 88.3%
viability, T/C [21]: 89.9%
viability, T/C (second compound 3.16 µM, first compound 0.949 µM): 87.9%
viability, T/C (second compound 3.16 µM, first compound 3 µM): 93.9%
viability, T/C [22]: 97.8%
viability, T/C [23]: 91.7%
viability, T/C [24]: 90.8%
viability, T/C [25]: 96.2%
viability, T/C (second compound 10 µM, first compound 0.949 µM): 94.5%
viability, T/C (second compound 10 µM, first compound 3 µM): 92.8%

O=C(C=Cn1cnc(-c2cc(C(F)(F)F)cc(C(F)(F)F)c2)n1)NNc1cnccn1 + NC1CCC(NC2CC2c2ccccc2)CC1
IC50 [1]: 18.8 nM
IC50 [2]: 17.6 nM
IC50 [3]: 11.4 nM
IC50 [4]: 17 nM
IC50 [5]: 20.7 nM
viability, T/C (second compound 0.1 µM, first compound 0.00316 µM): 87.4%
viability, T/C (second compound 0.1 µM, first compound 0.01 µM): 65.9%
viability, T/C (second compound 0.1 µM, first compound 0.0316 µM): 36.3%
viability, T/C (second compound 0.1 µM, first compound 0.1 µM): 32.7%
viability, T/C (second compound 0.1 µM, first compound 0.316 µM): 28.9%
viability, T/C (second compound 0.1 µM, first compound 1 µM): 26.9%
viability, T/C (second compound 0.316 µM, first compound 0.00316 µM): 102%
viability, T/C (second compound 0.316 µM, first compound 0.01 µM): 60.6%
viability, T/C (second compound 0.316 µM, first compound 0.0316 µM): 39%
viability, T/C (second compound 0.316 µM, first compound 0.1 µM): 31.3%
viability, T/C (second compound 0.316 µM, first compound 0.316 µM): 29.7%
viability, T/C (second compound 0.316 µM, first compound 1 µM): 28.1%
viability, T/C (second compound 1 µM, first compound 0.00316 µM): 87.4%
viability, T/C (second compound 1 µM, first compound 0.01 µM): 51%
viability, T/C (second compound 1 µM, first compound 0.0316 µM): 36.5%
viability, T/C (second compound 1 µM, first compound 0.1 µM): 32.7%
viability, T/C (second compound 1 µM, first compound 0.316 µM): 28.1%
viability, T/C (second compound 1 µM, first compound 1 µM): 26.2%
viability, T/C (second compound 3.16 µM, first compound 0.00316 µM): 99.5%
viability, T/C (second compound 3.16 µM, first compound 0.01 µM): 55.4%
viability, T/C (second compound 3.16 µM, first compound 0.0316 µM): 44%
viability, T/C (second compound 3.16 µM, first compound 0.1 µM): 33%
viability, T/C (second compound 3.16 µM, first compound 0.316 µM): 29.6%
viability, T/C (second compound 3.16 µM, first compound 1 µM): 27.2%
viability, T/C (second compound 10 µM, first compound 0.00316 µM): 99.2%
viability, T/C (second compound 10 µM, first compound 0.01 µM): 63.2%
viability, T/C (second compound 10 µM, first compound 0.0316 µM): 40.7%
viability, T/C (second compound 10 µM, first compound 0.1 µM): 36.8%
viability, T/C (second compound 10 µM, first compound 0.316 µM): 31.8%
viability, T/C (second compound 10 µM, first compound 1 µM): 29.5%

CCN(c1cc(-c2ccc(CN3CCOCC3)cc2)cc(C(=O)NCc2c(C)cc(C)[nH]c2=O)c1C)C1CCOCC1
viability, T/C (compound 0.00949 µM): 98.4% and 76.7%
viability, T/C (compound 0.03 µM): 84.1% and 80.7%
viability, T/C (compound 0.0949 µM): 85.5% and 79.5%
viability, T/C (compound 0.3 µM): 87.4% and 70.5%
viability, T/C (compound 0.949 µM): 89.7% and 63.1%
viability, T/C (compound 3 µM): 77.4% and 63.9%
IC50 (curve of compound): > 3000 nM
